Assay results from PubChem BioAssay (NCI).
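48-hour exposure; five concentrations; linearly interpolated endpoints. The concentration for full growth arrest is given as TGI.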 Where a SMILES comes first, the peptide text is derived from it. [ ]: non-standard residue; d: D form. The star is where a group is joined. NMeAc5c = CNC1(C(=O)O)CCCC1; Boc = CC(C)(C)OC(=O)*; OBn = c1ccc(CO*)cc1

Each compound was assayed on HCT-116 colon (assay: NCI tumour cell line growth inhibition, 48 h).

Row | Compound | TGI [µM]
1 | CCOC(=O)C(SCCO)C(C(=O)OCC)n1cnc2c(=O)[nH]c(NC(C)=O)nc21 (centres undefined) | > 100
2 | O=C(N/N=C(/COc1ccc(Cl)cc1)N=Cc1ccncc1)c1ccncc1 | > 100
3 | COc1cc(C2c3cc4c(cc3OC(N3CCOCC3)C2C)OCO4)ccc1O (centres undefined) | 50.4
4 | Cc1ccc(N=NC(=Nc2ccccc2)c2ccc(N(CCC#N)CCC#N)cc2)cc1 | > 100
5 | Cc1ccccc1C(=O)N1CCc2c([nH]c3ccccc23)C1 | 33
6 | NC(=O)NCCCC(NC(=O)OCCCCn1ccc(=O)[nH]c1=O)C(=O)O (centres undefined) | > 100
7 | Clc1ccccc1C(SCc1ccccc1)SCc1ccccc1 | > 100
8 | CC[C@@H]1CC[C@@H]2[C@H](CC[C@]3(C)[C@@H](OC(C)=O)CC[C@@H]23)[C@H]1COC(C)=O | 31.7
9 | COC(=O)C([C@H](NC1(c2ccccc2)c2ccccc2-c2ccccc21)C(=O)OC)N(NC(=O)OCc1ccccc1)C(=O)OCc1ccccc1 (mixture of isomers) | > 100
10 | COC(=O)c1cc(=O)nc2sc3cccc(C)c3n12 | > 100

These compounds were tested on HOP-92 NSCLC (assay: NCI tumour cell line growth inhibition, 48 h).

Row | Compound | TGI [µM]
11 | CCCCCCCCCCCCCCNC(=O)CCC(NC(=O)c1ccc(N(C)Cc2cnc3nc(N)nc(N)c3n2)cc1)C(=O)NCCCCCCCCCCCCCC (centres undefined) | 63.8
12 | COc1ccc(N/N=C2\CCOc3ccc(C)cc3C2=O)cc1 | > 100
13 | NC(N)=N/N=C/c1c(-c2ccc(N)cc2)nc2sccn12 | > 100
14 | CO/C(=N\N=C\c1ccc(C(F)(F)F)cc1)c1ccncc1 | > 10
15 | CCCCCCc1cc2cc(-c3csc(CC#N)n3)c(=O)oc2cc1O | 69
16 | COc1cc(Br)cc2cc(-c3cn4ccsc4n3)c(=O)oc12 | 71.9
17 | Nn1c(-c2ccccc2)nn(C(=O)c2ccccc2)c1=O | > 100
18 | O=c1[nH]c(Nc2cccc(CC(F)(F)F)c2)nc2nc[nH]c12 | > 100
19 | COc1ccc(-c2cc(O)c3nc4ccccc4n3c2)cc1 | > 100
20 | O=C1CC(NC(=O)C(F)(F)F)c2c(Br)sc(N3CCNCC3)c21 (centres undefined) | > 100
21 | COc1cc2nc3n(c(=O)c2cc1OC)-c1ccc([N+](=O)[O-])cc1C3=O | > 100
22 | CC(=O)OC1CC(OC2C(O)CC(OC3C(O)CC(OC4CCC5(C)C(CCC6C5CC(O)C5(C)C(C7=CC(=O)OC7)CCC65O)C4)OC3C)OC2C)OC(C)C1OC1OC(CO)C(O)C(O)C1O (centres undefined) | 0.517
23 | ClCCN1CCC2(CC1)SSC1(CCN(CCCl)CC1)S2 | 29.2
24 | C1CN(c2nc3c(nnc4nc(N5CCOCC5)sc43)s2)CCO1 | > 100
25 | COc1ccc(C2CC(c3c(O)ccc4ccccc34)=NN2C(C)=O)cc1OC (centres undefined) | > 100
26 | COC(=O)C1SC(SC)=NC12c1ccccc1Nc1ccccc12 (centres undefined) | 69.8
27 | COc1ccc2cc(NC(=O)N/N=C\c3ccc([N+](=O)[O-])cc3)ccc2c1 | > 100

Row | Compound | TGI [µM]
28 | CCCN(C(=O)c1ccccc1)C(C#N)c1ccc(C(C#N)N(CCC)C(=O)c2ccccc2)cc1 (centres undefined) | 64.4
29 | C=CC1(C)CCC2C(=CCC3C2(C)CC(O)C(O)C3(C)COC2OC(C(=O)O)C(O)C(O)C2O)C1 (centres undefined) (tested in a mixture with another compound) | > 100
30 | O=[N+]([O-])c1ccc2c(c1)/C(=N/N=C1c3ccccc3Cc3ccccc31)c1cc([N+](=O)[O-])cc([N+](=O)[O-])c1-2 | 8.61
31 | CN(C(=O)C(Cc1ccccc1)NC(=O)OC(C)(C)C)C1(C(=O)NC(Cc2ccccc2)C(=O)OCc2ccccc2)CCCC1 (stereo not drawn) (Boc-Phe-[NMeAc5c]-Phe-OBn; configuration not given here) | > 100
32 | CC(C)=CCc1c2c(c3occ(-c4ccc(O)cc4)c(=O)c3c1O)CC(C(C)(C)O)O2 (centres undefined) | 33.5
33 | COc1ccc(-c2c(C#N)c(-c3ccc(C)cc3)n(NS(=O)(=O)c3ccc(C)cc3)c(=O)c2C#N)cc1 | > 100
34 | CCOC(=O)C(SCCO)C(C(=O)OCC)n1cnc2c(=O)[nH]c(NC(C)=O)nc21 (centres undefined) | > 100
35 | O=C(N/N=C(/COc1ccc(Cl)cc1)N=Cc1ccncc1)c1ccncc1 | > 100
36 | COc1cc(C2c3cc4c(cc3OC(N3CCOCC3)C2C)OCO4)ccc1O (centres undefined) | > 100
37 | Cc1ccc(N=NC(=Nc2ccccc2)c2ccc(N(CCC#N)CCC#N)cc2)cc1 | 64.8
38 | Cc1ccccc1C(=O)N1CCc2c([nH]c3ccccc23)C1 | 44.4
39 | NC(=O)NCCCC(NC(=O)OCCCCn1ccc(=O)[nH]c1=O)C(=O)O (centres undefined) | > 100
40 | Clc1ccccc1C(SCc1ccccc1)SCc1ccccc1 | > 100
41 | CC[C@@H]1CC[C@@H]2[C@H](CC[C@]3(C)[C@@H](OC(C)=O)CC[C@@H]23)[C@H]1COC(C)=O | 69.8
42 | COC(=O)C([C@H](NC1(c2ccccc2)c2ccccc2-c2ccccc21)C(=O)OC)N(NC(=O)OCc1ccccc1)C(=O)OCc1ccccc1 (mixture of isomers) | > 100
43 | COC(=O)c1cc(=O)nc2sc3cccc(C)c3n12 | 69.1

The compounds below were run on MCF7 breast (assay: NCI tumour cell line growth inhibition, 48 h).

Row | Compound | TGI [µM]
44 | CCCCCCCCCCCCCCNC(=O)CCC(NC(=O)c1ccc(N(C)Cc2cnc3nc(N)nc(N)c3n2)cc1)C(=O)NCCCCCCCCCCCCCC (centres undefined) | 29.2
45 | COc1ccc(N/N=C2\CCOc3ccc(C)cc3C2=O)cc1 | > 100
46 | NC(N)=N/N=C/c1c(-c2ccc(N)cc2)nc2sccn12 | > 100
47 | CO/C(=N\N=C\c1ccc(C(F)(F)F)cc1)c1ccncc1 | > 10
48 | CCCCCCc1cc2cc(-c3csc(CC#N)n3)c(=O)oc2cc1O | > 100
49 | COc1cc(Br)cc2cc(-c3cn4ccsc4n3)c(=O)oc12 | 38.6
50 | Nn1c(-c2ccccc2)nn(C(=O)c2ccccc2)c1=O | > 100
51 | O=c1[nH]c(Nc2cccc(CC(F)(F)F)c2)nc2nc[nH]c12 | > 100
52 | COc1ccc(-c2cc(O)c3nc4ccccc4n3c2)cc1 | > 100
53 | O=C1CC(NC(=O)C(F)(F)F)c2c(Br)sc(N3CCNCC3)c21 (centres undefined) | > 100
54 | COc1cc2nc3n(c(=O)c2cc1OC)-c1ccc([N+](=O)[O-])cc1C3=O | 32
55 | CC(=O)OC1CC(OC2C(O)CC(OC3C(O)CC(OC4CCC5(C)C(CCC6C5CC(O)C5(C)C(C7=CC(=O)OC7)CCC65O)C4)OC3C)OC2C)OC(C)C1OC1OC(CO)C(O)C(O)C1O (centres undefined) | 0.431
56 | ClCCN1CCC2(CC1)SSC1(CCN(CCCl)CC1)S2 | 39.6
57 | C1CN(c2nc3c(nnc4nc(N5CCOCC5)sc43)s2)CCO1 | > 100
58 | COc1ccc(C2CC(c3c(O)ccc4ccccc34)=NN2C(C)=O)cc1OC (centres undefined) | 71.5
59 | COC(=O)C1SC(SC)=NC12c1ccccc1Nc1ccccc12 (centres undefined) | 82.7
60 | COc1ccc2cc(NC(=O)N/N=C\c3ccc([N+](=O)[O-])cc3)ccc2c1 | > 100

Row | Compound | TGI [µM]
61 | CCCN(C(=O)c1ccccc1)C(C#N)c1ccc(C(C#N)N(CCC)C(=O)c2ccccc2)cc1 (centres undefined) | > 100
62 | C=CC1(C)CCC2C(=CCC3C2(C)CC(O)C(O)C3(C)COC2OC(C(=O)O)C(O)C(O)C2O)C1 (centres undefined) (tested in a mixture with another compound) | > 100
63 | O=[N+]([O-])c1ccc2c(c1)/C(=N/N=C1c3ccccc3Cc3ccccc31)c1cc([N+](=O)[O-])cc([N+](=O)[O-])c1-2 | 3.64
64 | CN(C(=O)C(Cc1ccccc1)NC(=O)OC(C)(C)C)C1(C(=O)NC(Cc2ccccc2)C(=O)OCc2ccccc2)CCCC1 (stereo not drawn) (Boc-Phe-[NMeAc5c]-Phe-OBn; configuration not given here) | > 100
65 | CC(C)=CCc1c2c(c3occ(-c4ccc(O)cc4)c(=O)c3c1O)CC(C(C)(C)O)O2 (centres undefined) | 28.3
66 | COc1ccc(-c2c(C#N)c(-c3ccc(C)cc3)n(NS(=O)(=O)c3ccc(C)cc3)c(=O)c2C#N)cc1 | > 100
67 | CCOC(=O)C(SCCO)C(C(=O)OCC)n1cnc2c(=O)[nH]c(NC(C)=O)nc21 (centres undefined) | > 100
68 | O=C(N/N=C(/COc1ccc(Cl)cc1)N=Cc1ccncc1)c1ccncc1 | > 100
69 | COc1cc(C2c3cc4c(cc3OC(N3CCOCC3)C2C)OCO4)ccc1O (centres undefined) | > 83
70 | Cc1ccc(N=NC(=Nc2ccccc2)c2ccc(N(CCC#N)CCC#N)cc2)cc1 | 79.2
71 | Cc1ccccc1C(=O)N1CCc2c([nH]c3ccccc23)C1 | 51.8
72 | NC(=O)NCCCC(NC(=O)OCCCCn1ccc(=O)[nH]c1=O)C(=O)O (centres undefined) | > 100
73 | Clc1ccccc1C(SCc1ccccc1)SCc1ccccc1 | > 100
74 | CC[C@@H]1CC[C@@H]2[C@H](CC[C@]3(C)[C@@H](OC(C)=O)CC[C@@H]23)[C@H]1COC(C)=O | > 100
75 | COC(=O)C([C@H](NC1(c2ccccc2)c2ccccc2-c2ccccc21)C(=O)OC)N(NC(=O)OCc1ccccc1)C(=O)OCc1ccccc1 (mixture of isomers) | > 100
76 | COC(=O)c1cc(=O)nc2sc3cccc(C)c3n12 | > 100

What follows are compounds tested on MDA-N (assay: NCI tumour cell line growth inhibition, 48 h).

Row | Compound | TGI [µM]
77 | CCCCCCCCCCCCCCNC(=O)CCC(NC(=O)c1ccc(N(C)Cc2cnc3nc(N)nc(N)c3n2)cc1)C(=O)NCCCCCCCCCCCCCC (centres undefined) | 21.9
78 | COc1ccc(N/N=C2\CCOc3ccc(C)cc3C2=O)cc1 | 22.3
79 | NC(N)=N/N=C/c1c(-c2ccc(N)cc2)nc2sccn12 | 60.1
80 | CO/C(=N\N=C\c1ccc(C(F)(F)F)cc1)c1ccncc1 | > 10
81 | CCCCCCc1cc2cc(-c3csc(CC#N)n3)c(=O)oc2cc1O | > 100
82 | COc1cc(Br)cc2cc(-c3cn4ccsc4n3)c(=O)oc12 | 42.2
83 | Nn1c(-c2ccccc2)nn(C(=O)c2ccccc2)c1=O | > 100
84 | O=c1[nH]c(Nc2cccc(CC(F)(F)F)c2)nc2nc[nH]c12 | > 100
85 | COc1ccc(-c2cc(O)c3nc4ccccc4n3c2)cc1 | > 100
86 | O=C1CC(NC(=O)C(F)(F)F)c2c(Br)sc(N3CCNCC3)c21 (centres undefined) | > 100
87 | COc1cc2nc3n(c(=O)c2cc1OC)-c1ccc([N+](=O)[O-])cc1C3=O | > 100
88 | CC(=O)OC1CC(OC2C(O)CC(OC3C(O)CC(OC4CCC5(C)C(CCC6C5CC(O)C5(C)C(C7=CC(=O)OC7)CCC65O)C4)OC3C)OC2C)OC(C)C1OC1OC(CO)C(O)C(O)C1O (centres undefined) | 0.526
89 | ClCCN1CCC2(CC1)SSC1(CCN(CCCl)CC1)S2 | > 100
